{"source": "patent US8492148B2", "about": "“Method for amplification of endothelial progenitor cell in vitro” (Foundation for Biomedical Research & Innovation, priority 2005, dated 2013)", "tested_on": "cord blood CD133 positive cell-derived EPC", "assay": "EPC colony assay (methylcellulose medium containing physiologically active substances)", "type": "cell-based", "details": "1 μM TGF-β inhibitor in serum-free culture medium (compared with 0, 0.1, 10 μM); cultivation for 2 weeks", "protocol": "Using the serum-free culture media of the present invention containing various concentrations of TGF-β inhibitor as prepared in Example 1, cord blood CD133 positive cell-derived EPC was expanded in vitro and differentiated. The degree of expansion was evaluated by counting the number of colonies, and the degree of differentiation was evaluated by separately counting the number of colonies of blood lineage cell and that of EPC. For EPC colony, moreover, large cell colonies and small cell colonies were separately counted, as well as the total number of EPC colonies was counted.\nThe cord blood-derived mononuclear cells were collected and cultivated in a serum-free culture medium in the same manner as in Example 1. […]\nThe number of colonies confirmed to be the EPC colonies was counted. The total number of colonies, the number of small cell colonies and the number of large cell colonies were separately counted.\nFor the blood lineage colony, the number of colonies of four kinds of colonies: erythroid burst-forming unit colony (BFU-E), granulocyte-macrophage lineage colony-forming unit colony (CFU-GM), macrophage colony-forming unit colony (CFU-M) and mixed colony (CFU-GEM) was added, and the appearance frequency thereof was determined over time. […]", "note": "Entries after “also recorded” stand apart in the source; their conditions may differ."}
{"smiles": "NC(=O)c1ccc(-c2nc(-c3ccc4c(c3)OCO4)c(-c3ccccn3)[nH]2)cc1", "note": "[TGF-β inhibitor, 4-(5-benzo[1.3]dioxol-5-yl-4-pyridin-2-yl-1H-imidazol-2-yl)-benzamide]", "values": [{"measurement": "number of EPC colonies per Dish and total number of EPC colonies", "value": "at maximum; also recorded: largest number of EPC colonies"}]}
